According to patent US11007524B2, “Automatic microfluidic system for rapid personalized drug screening and testing method for personalized antibiotic susceptibility” (National Tsing Hua University, priority 2019, dated 2021):
≈ marks a conversion by molar mass, not a printed value.

Tests used:
[1] = system: vancomycin-intermediate Staphylococcus aureus (VISA); assay: Minimum inhibitory concentration by automatic microfluidic system (Example 9), resazurin colour change; assay type: cell-based
Experimental: A determination of minimum inhibitory concentration is performed by using the microfluidic chip 100 of FIG. 1 in cooperated with the testing method 200 for personalized antibiotic susceptibility of FIG. 5. The details of the testing method 200 has been described as mentioned above so that the same process will not be further illustrated herein.
In experimental, the microfluidic chip 100 is divided into a reaction zone 1001 and a reaction zone 1002 along line 10-10 by using the fluid storage chamber 111a and the fluid storage chamber 111b as a center. The reaction zone 1001 is utilized for determining the minimum inhibitory concentration of vancomycin for the vancomycin-intermediate Staphylococcus aureus, and the reaction zone 1002 is utilized for determining the minimum inhibitory concentration of gentamicin for the vancomycin-intermediate Staphylococcus aureus. After 4 hours of incubation of the reaction solutions including the resazurin, with different concentrations, the color of the reaction solution will be gradually changed to red when the vancomycin-intermediate Staphylococcus aureus grows and can be observed directly through the microfluidic chip 100.
In such the example, the reference numerals of the reaction chambers 131 of the microfluidic chip 100 are reassigned to the reaction chambers 131a to 131l. […]

[2] = system: vancomycin-intermediate Staphylococcus aureus (VISA); assay: Minimum inhibitory concentration by broth microdilution (Comparative Example 1); assay type: cell-based; conditions: same conditions
Description: Furthermore, the present testing further includes Comparative Example 1.

Row | Molecule | MIC ([1]; Staphylococcus aureus, VISA, 4 h, read-out: minimum inhibitory concentration, Example 9) [µg/mL] | MIC ([2]; Staphylococcus aureus) [µg/mL] | minimum inhibitory concentration, Example 9 ([1]; microfluidic chip, VISA 1500 CFU, 3 μL reaction solution, 4 hours of incubation, resazurin) [µg/mL] | minimum inhibitory concentration, Comparative Example 1 [2] [µg/mL]
1 | CN[C@H](CC(C)C)C(=O)N[C@H]1C(=O)N[C@@H](CC(N)=O)C(=O)N[C@H]2C(=O)N[C@H]3C(=O)N[C@H](C(=O)N[C@H](C(=O)O)c4cc(O)cc(O)c4-c4cc3ccc4O)[C@H](O)c3ccc(c(Cl)c3)Oc3cc2cc(c3O[C@@H]2O[C@H](CO)[C@@H](O)[C@H](O)[C@H]2O[C@H]2C[C@](C)(N)[C@H](O)[C@H](C)O2)Oc2ccc(cc2Cl)[C@H]1O [Vancomycin, vancomycin] | 2.16 (≈ 1.49 µM) | 2 (≈ 1.38 µM) | – | –
2 | gentamicin | – | – | >7.52 | >8
